In ChEMBL document CHEMBL4325849, “Identification of potential antivirulence agents by substitution-oriented screening for inhibitors of Streptococcus pyogenes sortase A” (Eur J Med Chem, 2019):
Active and inactive are the calls of the source. No cut-off for these calls is given here.

Key:
Streptococcus pyogenes [1] = assay: Inhibition of Streptococcus pyogenes SrtA deltaN81 mutant expressed in Escherichia coli BL21(DE3) at 100 uM using Abz-LPETA-Dap(Dnp) as substrate preincubated for 10 mins followed by substrate addition measured every min for 2.5 hrs by fluorimetric assay relative to control
Streptococcus pyogenes [2] = assay: Inhibition of Streptococcus pyogenes SrtA deltaN81 mutant expressed in Escherichia coli BL21(DE3) at 10 uM using Abz-LPETA-Dap(Dnp) as substrate preincubated for 10 mins followed by substrate addition measured every min for 2.5 hrs by fluorimetric assay relative to control
[3] = Solubility of the compound; assay type: physicochemical
[4] = (§1) Inhibition of Streptococcus pyogenes SrtA deltaN81 mutant expressed in Escherichia coli BL21(DE3) using Abz-LPETA-Dap(Dnp) as substrate preincubated for 10 mins followed by substrate addition measured every min for 2.5 hrs by fluorimetric assay
Staphylococcus aureus = assay: Inhibition of […] SrtA deltaN59 mutant expressed in Escherichia coli BL21(DE3) at 100 uM using Abz-LPETG-Dap(Dnp) as substrate preincubated for 10 mins followed by substrate addition measured every min for 2.5 hrs by fluorimetric assay
Streptococcus pyogenes [5] = assay: Mixed-type inhibition of Streptococcus pyogenes SrtA deltaN81 mutant expressed in Escherichia coli BL21(DE3) at 5 to 10 uM using Abz-LPETA-Dap(Dnp) as substrate preincubated for 10 mins followed by substrate addition measured every min for 2 hrs by fluorimetric assay relative to control
[6] = Binding affinity to NT-647 labeled Streptococcus pyogenes His-tagged SrtA deltaN81 mutant expressed in Escherichia coli BL21(DE3) by microscale thermophoresis method
Streptococcus pyogenes [7] = assay: Induction of aggregation of NT-647 labeled Streptococcus pyogenes His-tagged SrtA deltaN81 mutant expressed in Escherichia coli BL21(DE3) by microscale thermophoresis method
Streptococcus pyogenes [8] = assay: as §1

Row | SMILES | inhibition (Streptococcus pyogenes [1]) | further results
1 | Cn1c2c(c3ccccc31)C(=O)NCC2 | 20.5% | 
2 | Nc1ncncc1C=O | 20.7% | 
3 | CC(C(=O)O)c1ccc2cc(OS(C)(=O)=O)ccc2c1 (stereo not drawn) | 17% | 
4 | O=C1CCN2c3ccccc3Sc3ccc(Cl)c1c32 | 11.1% | 
5 | Cc1ccc(S(=O)(=O)/N=C/c2cc3ccc(Cl)cc3[nH]2)cc1 | 8.8% | 
6 | CCC(=O)c1cccs1 | 0.1% | 
7 | CC(=O)NCCc1c[nH]c2ccc(O)cc12 | 10.8% | 
8 | Cn1c(=O)c2[nH]cnc2n(C)c1=O | 2.3% | 
9 | Cn1c(C(=O)O)cc2ccccc21 | 8.2% | 
10 | CCOC(=O)NCCc1c[nH]c2ccc(OC)cc12 | 11.7% | 
11 | O=Cc1ccc2[nH]ccc2c1 | 11.3% | 
12 | O=Cc1c[nH]c2ccccc12 | 1.5% | 
13 | CCCN1CCOC2c3c(ccc4[nH]ccc34)OCC21 (stereo not drawn) | 13.4% | 
14 | Nc1[nH]c2cc(Cl)ccc2c1C(=O)N1CCOCC1 | 91.6% | inhibition (Streptococcus pyogenes [2]): > 50%; solubility [3]: Soluble; IC50 [4]: 10 µM; inhibition (Staphylococcus aureus): inactive; inhibition (Streptococcus pyogenes [5]): Active; Kd [6]: 60 µM; Activity (Streptococcus pyogenes [7]): inactive
15 | O=Cc1c[nH]c2ccc(Cl)cc12 | 12.3% | 
16 | c1ccc2c3c([nH]c2c1)CNCC3 | 10.1% | 
17 | CC(=O)NCCc1c[nH]cn1 | 3.8% | 
18 | CCOC(=O)c1cc(-c2ccccc2)c2cccc(O)c2c1 | 60.2% | inhibition (Streptococcus pyogenes [2]): > 50%
19 | Nc1[nH]c2ccccc2c1C(=O)NCCc1ccc(Cl)cc1Cl | 54.8% | inhibition (Streptococcus pyogenes [2]): > 50%
20 | O=C(O)c1cc2ccccc2[nH]1 | 4.5% | 
21 | Nc1c(C(=O)N2CCOCC2)cnn1Cc1ccccc1 | 1% | 
22 | Nc1ncccn1 | 7.5% | 
23 | NNC(=O)c1ccnc(C(=O)NN)c1 | 3% | 
24 | COC(=O)c1ccnc(C(=O)OC)c1 | 5.5% | 
25 | COc1ccc2[nH]cc(CCN)c2c1 | -1.9% | 

Row | SMILES | inhibition (Streptococcus pyogenes [1]) | further results
26 | COc1ccc2[nH]cc(CCNC(C)=O)c2c1 | 16% | 
27 | O=c1c2cc3cc(Cl)ccc3nc2ncn1N1CCCCC1 | 42.2% | 
28 | O=C(O)c1ccc2ccccc2n1 | 23.1% | 
29 | O=C(O)Cc1c[nH]cn1 | -7.6% | 
30 | O=C(O)c1cc2ccccc2s1 | 4.5% | 
31 | COC(=O)c1cc2ccc(Cl)cc2[nH]1 | 28.2% | 
32 | O=C(O)c1cc2cc(Cl)ccc2[nH]1 | 9.1% | 
33 | CCOC(=O)c1[nH]c2cc(Cl)ccc2c1/C=N/c1ccccc1 | 3.7% | 
34 | CCOC(=O)c1[nH]c2cc(Cl)ccc2c1C(=O)CCC(=O)OC | 23.8% | 
35 | Oc1ccc2ncccc2c1 | 115% | 
36 | Nc1ccc(S(=O)(=O)Nc2ccccn2)cc1 | 3.8% | 
37 | CCOC(=O)c1[nH]c2cc(Cl)ccc2c1C=O | 25.7% | 
38 | O=C(O)c1[nH]c2cc(Cl)ccc2c1C(=O)Cc1ccc(Cl)cc1 | 28.3% | 
39 | Nc1[nH]c2ccccc2c1C(=O)N1CCOCC1 |  | inhibition (Streptococcus pyogenes [8]): inactive
40 | CCOC(=O)c1c(C=O)c(C)n(-c2ccccc2)c1C | 2.9% | 
41 | O=C(O)CCC(=O)c1cccs1 | 9.8% | 
42 | O=[N+]([O-])c1cccc2[nH]ccc12 | 21.2% | 
43 | NCCc1c[nH]c2ccccc12 | -5.3% | 
44 | O=C(O)c1cccs1 | 1.4% | 
45 | CCOC(=O)c1[nH]c2cc(Cl)ccc2c1N | 12.8% | 
46 | O=c1cc[nH]c(=O)[nH]1 | 2.7% | 
47 | Nc1[nH]c2cc(C(F)(F)F)ccc2c1C(=O)NC1CCCCC1 | -6.3% | 
48 | Nc1[nH]c2ccccc2c1C(=O)N1CCCCC1 |  | inhibition (Streptococcus pyogenes [8]): inactive
49 | N#CCC(=O)c1c[nH]c2cc(F)ccc12 | 10.7% | 
50 | CCOC(=O)c1[nH]c2cc(Cl)ccc2c1C(=O)O | 26.3% | 

Row | SMILES | inhibition (Streptococcus pyogenes [1]) | further results
51 | CCC(=O)N1CCN(c2ncccn2)CC1 | 11.6% | 
52 | CC(C)NCC(O)COc1cccc2ccccc12 (stereo not drawn) | -4.2% | 
53 | O=Cc1ccc[nH]1 | 3.2% | 
54 | O=C(O)CCC(=O)c1ccc2ccccc2c1 | 86.6% | inhibition (Streptococcus pyogenes [2]): > 50%
55 | CCOC(=O)c1[nH]c2cc(Cl)ccc2c1C#Cc1ccccc1 | 118% | inhibition (Streptococcus pyogenes [2]): > 50%
56 | Nc1[nH]c2cc(Cl)ccc2c1C(=O)NCCc1ccc(Cl)cc1 | 91.9% | inhibition (Streptococcus pyogenes [2]): > 50%
57 | CCOC(=O)c1cc2ccccc2[nH]1 | 16.4% | 
58 | COc1cccc2c3c(ccc12)NC(=O)CC3 | 54.2% | inhibition (Streptococcus pyogenes [2]): > 50%
59 | O=C(Nc1[nH]c2ccccc2c1C(=O)N1CCOCC1)c1ccccc1 |  | inhibition (Streptococcus pyogenes [8]): inactive
60 | O=Cc1nc2ccc(Cl)cc2[nH]1 | 19.9% | 
61 | Nc1nccc(O)n1 | 14.5% | 
62 | O=C(O)Cc1c[nH]c2ccccc12 | 8.6% | 
63 | COC(=O)c1cc2ccccc2[nH]1 | 5.1% | 
64 | NC(Cc1c[nH]c2ccccc12)C(=O)O (stereo not drawn) | 5.5% | 
65 | COc1ccc(CCNC(=O)c2cnn(-c3ccccc3)c2N)cc1OC | 4.6% | 
66 | O=Cc1c[nH]c2cc(Cl)ccc12 | 6.4% | 
67 | Nc1ncccc1CO | -0.5% | 
68 | CCOC(=O)c1cc2ccc(Cl)cc2[nH]1 | 15% | 
69 | Nc1c(C(=O)NCC(O)c2ccccc2)cnn1-c1ccccc1 (stereo not drawn) | 35.4% | 
70 | COc1cc(NS(=O)(=O)c2ccc(N)cc2)ncn1 | 12% | 
71 | O=C(O)CCC(=O)c1c(C(=O)O)[nH]c2cc(Cl)ccc12 | 15.1% | 
72 | O=C(c1cccs1)N1CCN(c2ncccn2)CC1 | 10.2% | 
73 | COc1ccc(C(O)c2[nH]c3ccccc3c2CCN)cc1 (stereo not drawn) | 60.8% | inhibition (Streptococcus pyogenes [2]): > 50%
74 | Nc1[nH]c2ccccc2c1C(=O)NC1CC1 | 29.2% | 
